Results taken from patent US8580811B2 (Ligand Pharmaceuticals Incorporated, priority 2005, dated 2013).
Like-named read-outs stand apart in the source and are kept apart here.

Biological target: T1, human AR (Homo sapiens, UniProt P10275)
T1 construct: expressed in transfected cells; host or cells: COS-1 cells
T1 sequence (P10275 1-920): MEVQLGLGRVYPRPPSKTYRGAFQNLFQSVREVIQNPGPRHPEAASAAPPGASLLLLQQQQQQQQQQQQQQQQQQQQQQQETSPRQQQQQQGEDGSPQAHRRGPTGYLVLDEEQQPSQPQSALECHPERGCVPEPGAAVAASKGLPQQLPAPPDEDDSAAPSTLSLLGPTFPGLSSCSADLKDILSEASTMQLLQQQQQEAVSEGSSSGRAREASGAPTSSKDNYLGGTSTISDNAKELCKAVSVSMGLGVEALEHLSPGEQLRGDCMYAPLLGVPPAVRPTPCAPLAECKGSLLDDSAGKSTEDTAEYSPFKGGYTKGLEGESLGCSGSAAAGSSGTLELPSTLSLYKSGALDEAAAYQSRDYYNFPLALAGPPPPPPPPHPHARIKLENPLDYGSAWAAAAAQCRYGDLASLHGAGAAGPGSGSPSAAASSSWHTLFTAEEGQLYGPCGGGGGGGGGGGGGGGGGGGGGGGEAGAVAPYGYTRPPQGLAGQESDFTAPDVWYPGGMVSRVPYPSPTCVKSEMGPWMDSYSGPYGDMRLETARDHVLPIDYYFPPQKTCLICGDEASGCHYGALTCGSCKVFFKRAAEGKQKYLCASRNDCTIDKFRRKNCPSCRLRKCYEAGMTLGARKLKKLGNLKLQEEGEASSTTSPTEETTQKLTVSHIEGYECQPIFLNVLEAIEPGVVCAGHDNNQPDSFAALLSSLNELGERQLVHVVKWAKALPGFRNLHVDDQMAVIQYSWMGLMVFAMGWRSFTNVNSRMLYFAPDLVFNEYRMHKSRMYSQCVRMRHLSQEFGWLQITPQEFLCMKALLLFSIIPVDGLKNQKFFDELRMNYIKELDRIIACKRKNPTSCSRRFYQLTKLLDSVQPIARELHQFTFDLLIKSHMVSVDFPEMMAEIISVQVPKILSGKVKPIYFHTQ
Test: IR Binding Assay: whole cell competitive binding of test compounds against 3H-DHT in COS-1 cells transfected with pRShAR
Description: For the whole cell binding assay, COS-1 cells in 96-well microtiter plates including DMEM-10% FBS were transfected as described above with the following plasmid DNA: pRShAR (2 ng/well), pRS-β-Gal (50 ng/well) and pGEM (48 ng/well). Six hours after transfection, media was removed, the cells were washed with PBS and fresh media was added. The next day, the media was changed to DMEM-serum free to remove any endogenous ligand that might be complexed with the receptor in the cells.
After 24 hours in serum-free media, either a saturation analysis to determine the Kd for tritiated dihydrotestosterone (^3H-DHT) on human AR or a competitive binding assay to evaluate the ability of test compounds to compete with ^3H-DHT for AR was performed. […] For the competitive binding assay, media including 1 nM ^3H-DHT and test compounds in concentrations ranging from 10^−10 to 10^−6 M were added to the cells. Three replicates were used for each sample. After three hours at 37° C., an aliquot of the total binding media at each concentration of ^3H-DHT was removed to estimate the amount of free ^3H-DHT. The remaining media was removed, the cells were washed three times with PBS to remove unbound ligand, and cells were lysed with a Triton X-100-based buffer. The lysates were assayed for amount of bound ^3H-DHT and β-Gal activity using a scintillation counter or spectrophotometer, respectively.
For the saturation analyses, the difference between the total binding and the nonspecific binding, normalized by the β-Gal rate, was defined as specific binding. The specific binding was evaluated by Scatchard analysis to determine the Kd for ^3H-DHT. See e.g., D. Rodbard, “Mathematics and statistics of ligand assays: an illustrated guide” In: J. Langon and J. J. Clapp, eds., Ligand Assay, Masson Publishing U.S.A., Inc., New York, pp. 45-99, (1981), the disclosure of which is herein incorporated by reference. For the competition studies, the data was plotted as the amount of ^3H-DHT (% of control in the absence of test compound) remaining over the range of the dose-response curve for a given compound. […] The Ki values were determined by application of the Cheng-Prusoff equation to the IC50 values, where:
[formula] After correcting for non-specific binding, IC50 values were determined. […] The IC50 value was determined graphically from a log-logit plot of the data. The Ki values were determined by application of the Cheng-Prusoff equation to the IC50 values, the labeled ligand concentration and the Kd of the labeled ligand. see e.g., Cheng, Y. C. and Prusoff, W. H. Biochem. Pharmacol. 22:3099 (1973).

**Q.** CC1c2c(ccc3[nH]c(=O)cc(Cl)c23)NC1c1ccccc1 (racemic) [Compound 172, (±)-9-Chloro-1-methyl-2-phenyl-1,2,3,6-tetrahydro-pyrrolo[3,2-f]quinolin-7-one] was tested. Which Ki (competition with 1 nM 3H-DHT, transfected COS-1 cells, 3 h at 37° C., Cheng-Prusoff from IC50, read-out: Ki) did it give?
**A.** > 10 nM

**Q.** For CC1c2c(ccc3[nH]c(=O)cc(Cl)c23)N(CC(F)(F)F)C1c1ccccc1F (racemic) [Compound 156, (±)-9-Chloro-2-(2-fluorophenyl)-1-methyl-3-(2,2,2-trifluoroethyl)-1,2,3,6-tetrahydro-pyrrolo[3,2-f]quinolin-7-one], which Ki is on record?
**A.** < 5 nM

**Q.** CC1c2c(ccc3[nH]c(=O)cc(Cl)c23)N(CC(F)(F)F)C1C (racemic) [Compound 127, (±)-9-Chloro-1,2-dimethyl-3-(2,2,2-trifluoro-ethyl)-1,2,3,6-tetrahydro-pyrrolo[3,2-f]quinolin-7-one] was tested. Which Ki did it give?
**A.** 5 to 10 nM

**Q.** For Cc1c(-c2ccccc2)n(CC(F)(F)F)c2ccc3[nH]c(=O)cc(Cl)c3c12 [Compound 187, 9-Chloro-1-methyl-2-phenyl-3-(2,2,2-trifluoroethyl)-3,6-dihydro-pyrrolo[3,2-f]quinolin-7-one], which Ki is on record?
**A.** < 5 nM

**Q.** For COc1ccc(-c2c(C)c3c4c(Cl)cc(=O)[nH]c4ccc3n2CC(F)(F)F)cc1 [Compound 197, 9-Chloro-2-(4-methoxyphenyl)-1-methyl-3-(2,2,2-trifluoroethyl)-3,6-dihydro-pyrrolo[3,2-f]-quinolin-7-one], which Ki is on record?
**A.** < 5 nM

**Q.** Cc1c(-c2ccccc2F)[nH]c2ccc3[nH]c(=O)cc(Cl)c3c12 [Compound 119, 9-Chloro-2-(2-fluorophenyl)-1-methyl-3,6-dihydro-pyrrolo[3,2-f]quinolin-7-one] was tested. Which Ki did it give?
**A.** < 5 nM

**Q.** With Cc1c(-c2nccs2)n(C[C@H](O)C(F)(F)F)c2ccc3[nH]c(=O)cc(Cl)c3c12 [Compound 276, (S)-9-Chloro-1-methyl-2-(1,3-thiazol-2-yl)-3-(3,3,3-trifluoro-2-hydroxy-propyl)-3,6-dihydro-pyrrolo[3,2-f]quinolin-7-one] as the compound, how does the Ki read?
**A.** > 10 nM

**Q.** How did the Ki turn out when Cc1c(-c2cccs2)n(CC(F)(F)F)c2ccc3[nH]c(=O)cc(Cl)c3c12 [Compound 207, 9-Chloro-1-methyl-2-thien-2-yl-3-(2,2,2-trifluoroethyl)-3,6-dihydro-pyrrolo[3,2-f]quinolin-7-one] was run?
**A.** < 5 nM

**Q.** How did the Ki turn out when CCc1c(-c2cccs2)[nH]c2ccc3[nH]c(=O)cc(Cl)c3c12 [Compound 123, 9-Chloro-1-ethyl-2-thien-2-yl-3,6-dihydro-pyrrolo[3,2-f]quinolin-7-one] was run?
**A.** 5 to 10 nM

**Q.** Which Ki does the source give for Cc1[nH]c2ccc3[nH]c(=O)cc(Cl)c3c2c1CC(=O)O [Compound 122, (9-Chloro-2-methyl-7-oxo-6,7-dihydro-3H-pyrrolo[3,2-f]quinolin-1-yl)-acetic acid] here?
**A.** < 5 nM

**Q.** CCc1c(C)c2c3c(Cl)cc(=O)[nH]c3ccc2n1CC(F)(F)Cl [Compound 222, 9-Chloro-3-(2-chloro-2,2-difluoroethyl)-2-ethyl-1-methyl-3,6-dihydro-pyrrolo[3,2-f]-quinolin-7-one] was tested. Which Ki did it give?
**A.** < 5 nM

**Q.** For Cc1c(C)n(CCCO)c2ccc3[nH]c(=O)cc(Cl)c3c12 [Compound 287, 9-Chloro-1,2-dimethyl-3-(3-hydroxypropyl)-3,6-dihydro-pyrrolo[3,2-f]quinolin-7-one], which Ki is on record?
**A.** > 10 nM

**Q.** Which Ki does the source give for CC1Cc2c(ccc3[nH]c(=O)cc(Cl)c23)N1CC(F)(F)F (racemic) [Compound 131, (±)-9-Chloro-2-methyl-3-(2,2,2-trifluoro-ethyl)-1,2,3,6-tetrahydropyrrolo[3,2-f]quinolin-7-one] here?
**A.** > 10 nM

**Q.** For Cc1c(-c2ncco2)n(CC(F)(F)C(F)(F)F)c2ccc3[nH]c(=O)cc(Cl)c3c12 [Compound 266, 9-Chloro-1-methyl-2-(oxazol-2-yl)-3-(2,2,3,3,3-pentafluoropropyl)-3,6-dihydro-pyrrolo[3,2-f]quinolin-7-one], which Ki is on record?
**A.** < 5 nM

**Q.** How did the Ki turn out when CC(=O)OCCCn1c(C)c(C)c2c3c(C(F)(F)F)cc(=O)[nH]c3ccc21 [Compound 250, 3-(3-Acetoxypropyl)-1,2-dimethyl-9-trifluoromethyl-3,6-dihydro-pyrrolo[3,2-f]quinolin-7-one] was run?
**A.** < 5 nM

**Q.** Which Ki does the source give for Cc1c(C)n(CC(O)C(F)(F)F)c2ccc3[nH]c(=O)cc(C(F)(F)F)c3c12 (racemic) [Compound 243, (±)-1,2-Dimethyl-3-(3,3,3-trifluoro-2-hydroxy-propyl)-9-trifluoromethyl-3,6-dihydro-pyrrolo[3,2-f]-quinolin-7-one] here?
**A.** < 5 nM

**Q.** With CCc1c(C)c2c3c(Cl)cc(=O)[nH]c3ccc2n1C[C@@H](O)C(F)(F)F [Compound 281, (R)-9-Chloro-2-ethyl-1-methyl-3-(3,3,3-trifluoro-2-hydroxy-propyl)-3,6-dihydro-pyrrolo[3,2-f]quinolin-7-one] as the compound, how does the Ki read?
**A.** < 5 nM

**Q.** Which Ki does the source give for C#CCn1c(C)c(C)c2c3c(C(F)(F)F)cc(=O)[nH]c3ccc21 [Compound 242, 1,2-Dimethyl-3-(prop-2-ynyl)-9-trifluoromethyl-3,6-dihydro-pyrrolo[3,2-f]quinolin-7-one] here?
**A.** < 5 nM

**Q.** How did the Ki turn out when Cc1c(C)n(CCCF)c2ccc3[nH]c(=O)cc(C(F)(F)F)c3c12 [Compound 248, 1,2-Dimethyl-3-(3-fluoropropyl)-9-trifluoromethyl-3,6-dihydro-pyrrolo[3,2-f]quinolin-7-one] was run?
**A.** < 5 nM

**Q.** With CC1c2c(ccc3[nH]c(=O)cc(Cl)c23)N(CCC(F)(F)F)C1C (racemic) [Compound 145, (±)-9-Chloro-1,2-dimethyl-3-(3,3,3-trifluoropropyl)-1,2,3,6-tetrahydro-pyrrolo[3,2-f]-quinolin-7-one] as the compound, how does the Ki read?
**A.** < 5 nM

**Q.** With Cc1c(-c2ccccc2)n(C[C@@H](O)C(F)(F)F)c2ccc3[nH]c(=O)cc(Cl)c3c12 [Compound 280, 9-Chloro-1-methyl-2-phenyl-3-(3,3,3-trifluoro-2-hydroxy-propyl)-3,6-dihydro-pyrrolo[3,2-f]quinolin-7-one] as the compound, how does the Ki read?
**A.** > 10 nM

**Q.** Which Ki does the source give for CC1CN(CC(F)(F)F)c2ccc3[nH]c(=O)cc(Cl)c3c21 (racemic) [Compound 132, (±)-9-Chloro-1-methyl-3-(2,2,2-trifluoro-ethyl)-1,2,3,6-tetrahydro-pyrrolo[3,2-f]quinolin-7-one] here?
**A.** < 5 nM

**Q.** For CC1c2c(ccc3[nH]c(=O)cc(Cl)c23)N(CC(F)(F)F)C1c1ccc(Cl)c(Cl)c1 (racemic) [Compound 157, (±)-9-Chloro-2-(3,4-dichlorophenyl)-1-methyl-3-(2,2,2-trifluoroethyl)-1,2,3,6-tetrahydropyrrolo[3,2-f]quinolin-7-one], which Ki is on record?
**A.** < 5 nM

**Q.** For Cc1c(C)n(CC(O)C(F)(F)F)c2ccc3[nH]c(=O)cc(Cl)c3c12 (racemic) [Compound 279, rac-9-Chloro-1,2-dimethyl-3-(3,3,3-trifluoro-2-hydroxy-propyl)-3,6-dihydro-pyrrolo[3,2-f]-quinolin-7-one], which Ki (competition with 1 nM 3H-DHT, transfected COS-1 cells, 3 h at 37° C., Cheng-Prusoff from IC50) is on record?
**A.** < 5 nM

**Q.** With Cc1ccc(-c2c(C)c3c4c(Cl)cc(=O)[nH]c4ccc3n2CC(F)(F)C(F)(F)F)o1 [Compound 267, 9-Chloro-1-methyl-2-(5-methylfuran-2-yl)-3-(2,2,3,3,3-pentafluoropropyl)-3,6-dihydro-pyrrolo[3,2-f]quinolin-7-one] as the compound, how does the Ki read?
**A.** 5 to 10 nM
